Experimental data as given in patent US4529593A, “Use of gallium salts to treat disorders of calcium homeostasis” (Sloan-Kettering Institute for Cancer Research, priority 1984, dated 1985).

Columns and labels:
[1] = system: fetal rat bones; assay: 45-Ca++ release (bone resorption) from explants of fetal rat bones stimulated by PTH or lymphokine (OAF); assay type: cell-based; conditions: for 45-Ca++ release after stimulation by PTH or lymphokine (dose dependence): 48 hrs preincubation; for 45-Ca++ release expt'l / 45-Ca++ release control (E/C): control 1.00 ± .06; for 45-Ca++ release, gallium alone: without added PTH or lymphokine, vs control bones
Experimental: The effects of gallium nitrate on bone resorption in vitro were studied using explants of fetal rat bones (Bockman, R. S. and Repo, M. A., J Exp Med 154:529, 1981). Pregnant rats were injected with 0.2-0.4 mCi of 45-CaC12 on the 18th day of gestation. After 2 days of bone mineralization in utero, the radii and ulnae of fetal rats were explanted and placed on stainless steel rafts in BGJ media. Calcium releases from bone was stimulated by the addition of bovine PTH (2.0 microM, final concentration)or a lymphokine (OAF) preparation (10% of final volume). Gallium nitrate was added to the culture media at final concentration of 1, 5 and 10 mcg/ml simultaneously with--and 18 or 48 hours prior to--the addition of the bone-resorbing factors. After 48 hours of exposure to lymphokine or PTH, calcium release was determined by counting the supernatant media in a liquid scintillation counter. Data were expressed as the ratio of calcium release in counts per minute (cpm) of the experimental bone (treated or untreated with gallium nitrate and a resorbing factor) to cpm release by a paired control bone (treated or untreated with gallium nitrate) [cpm experimental/cpm control=E/C] Forty-nine bones were used to establish control values; 4-22 bones were used to obtain each of the experimental points. […]

[2] = system: cancer-related hypercalcemia; assay: treatment of cancer-related hypercalcemia with gallium nitrate; assay type: in vivo, patients; conditions: for Serum calcium, Post-Treatment: 100 mg/sq m/d × 5 d; for Total Serum Calcium, Post-Treatment: 200 mg/sq m/d × 5-7 d
Experimental: Summary: In the initial study, gallium nitrate was used for the treatment of 10 patients with cancer-related hypercalcemia. The daily dose of drug was 200 mg/sq m administered as a continuous infusion for durations ranging from 5-7 days. The diagnoses of this patient population and the change in total serum calcium concentration in response to this therapy are presented in Table 4a.
The subsequent increase of their disease was not accompanied by an increase in serum calcium which indicates a persistent control of the metabolic problem despite lack of control of the underlying cancer. All other patients who received the drug manifested progressive cancer despite control of the hypercalcemia. […] In a subsequent study, we further reduced the daily dose of gallium nitrate to 100 mg/sq m administered for 5 days. At a lower dose, 5 of 8 patients were normalized (Table 4b). These preliminary clinical results reflect our preclinical studies previously detailed, namely that there exists a distinct dose-response relation to the anti-calcium effect (Warrell, R. P. Jr, Bockman, R. S. et al, J. Clin. Invest. 73:1487 (1984 )).

[3] = system: kidney; conditions: Leyland-Jones et al 1983; cited from earlier work

O=[N+]([O-])[O-].O=[N+]([O-])[O-].O=[N+]([O-])[O-].[Ga+3] [gallium nitrate]
45-Ca++ release after stimulation by PTH or lymphokine (dose dependence) ([1]; 1 mcg/ml): no significant change | 45-Ca++ release after stimulation by PTH or lymphokine (dose dependence) ([1]; 5 and 10 mcg/ml, P less than 0.025): significant and dose-related reductions | 45-Ca++ release (time dependence) ([1]; 10 mcg/ml simultaneously with (time 0) or 18 hrs preceding PTH or lymphokine): the reduction was not statistically significant | 45-Ca++ release ([1]; 48 h preincubation, 1, 5 and 10 mcg/ml): dose dependent decrease | 45-Ca++ release expt'l / 45-Ca++ release control (E/C) ([1]; PTH-stimulated, gallium 1 mcg/ml, 48 h preincubation, 0 gallium: 1.21 ± 0.15): 1.24 | 45-Ca++ release expt'l / 45-Ca++ release control (E/C) ([1]; PTH-stimulated, gallium 5 mcg/ml, 48 h preincubation, 0 gallium: 1.21 ± 0.15): 1.08 | 45-Ca++ release expt'l / 45-Ca++ release control (E/C) ([1]; PTH-stimulated, gallium 10 mcg/ml, 48 h preincubation, 0 gallium: 1.21 ± 0.15): 0.99 | 45-Ca++ release expt'l / 45-Ca++ release control (E/C) ([1]; lymphokine-stimulated, gallium 1 mcg/ml, 48 h preincubation, 0 gallium: 1.59 ± .1): 1.54 ± .16 | 45-Ca++ release expt'l / 45-Ca++ release control (E/C) ([1]; lymphokine-stimulated, gallium 5 mcg/ml, 48 h preincubation, 0 gallium: 1.59 ± .1): 1.21 ± .04 | 45-Ca++ release expt'l / 45-Ca++ release control (E/C) ([1]; lymphokine-stimulated, gallium 10 mcg/ml, 48 h preincubation, 0 gallium: 1.59 ± .1): 1.23 ± .04 | lymphokine-induced 45-Ca++ release (time dependence) ([1]; pre-incubation 48 hours preceding lymphokine, 10 mcg/ml): highly significant reduction | calcium release induced by PTH and by factor similar to OAF ([1]; summary, inhibition time- and dose-dependent): inhibits calcium release induced by both of these substances | 45-Ca++ release, gallium alone [1]: No increase in bone calcium release | 45-Ca++ release, gallium alone ([1]; listed as gallium): did not have any effect on 45-Ca++ release | patients normalized ([2]; 100 mg/sq m for 5 days): 5 of 8 | Serum calcium, Post-Treatment ([2]; Patient 1, Breast, pre-treatment 13.9): 11.3 mg/dL | Serum calcium, Post-Treatment ([2]; Patient 2, Anus, pre-treatment 12.7): 6.3 mg/dL | Serum calcium, Post-Treatment ([2]; Patient 3, Kidney, pre-treatment 14.3): 12.0 mg/dL | Serum calcium, Post-Treatment ([2]; Patient 4, Breast, pre-treatment 14.5): 8.7 mg/dL | Serum calcium, Post-Treatment ([2]; Patient 5, Pancreas, pre-treatment 14.6): 10.0 mg/dL | Serum calcium, Post-Treatment ([2]; Patient 6, Myeloma, pre-treatment 15.0): 13.7 mg/dL | Serum calcium, Post-Treatment ([2]; Patient 7, Lung, pre-treatment 13.0): 10.8 mg/dL | Serum calcium, Post-Treatment ([2]; Patient 8, Breast, pre-treatment 17.0): 9.0 mg/dL | response (serum calcium concentration) ([2]; 200 mg/sq m/d continuous infusion 5-7 days, 10 patients): all patients responded to this treatment by a reduction in serum calcium concentration to normal (and frequently sub-normal) values | Total Serum Calcium, Post-Treatment ([2]; Patient 1, Breast, pre-treatment 13.8): 8.9 mg/dL | Total Serum Calcium, Post-Treatment ([2]; Patient 2, Breast, pre-treatment 15.2): 8.5 mg/dL | Total Serum Calcium, Post-Treatment ([2]; Patient 3, Lymphoma, pre-treatment 15.6): 6.6 mg/dL | Total Serum Calcium, Post-Treatment ([2]; Patient 4, Head & Neck, pre-treatment 12.3): 8.5 mg/dL | Total Serum Calcium, Post-Treatment ([2]; Patient 5, Breast, pre-treatment 14.4): 7.7 mg/dL | Total Serum Calcium, Post-Treatment ([2]; Patient 6, Lymphoma, pre-treatment 15.6): 8.6 mg/dL | Total Serum Calcium, Post-Treatment ([2]; Patient 7, Lung, pre-treatment 12.5): 7.0 mg/dL | Total Serum Calcium, Post-Treatment ([2]; Patient 8, Penis, pre-treatment 12.3): 9.3 mg/dL | Total Serum Calcium, Post-Treatment ([2]; Patient 9, Head & Neck, pre-treatment 13.5): 7.8 mg/dL | Total Serum Calcium, Post-Treatment ([2]; Patient 10, Lung, pre-treatment 13.7): 9.3 mg/dL | size of a lymphomatous mass ([2]; 200 mg/sq m/d, Patient 5, followed by progression and death): transient decrease in the size of a lymphomatous mass | anti-cancer effect associated with hypocalcemic effect ([2]; 200 mg/sq m/d, all patients except Patient 5): not associated with any anti-cancer effect | nephrotoxicity [3]: generally reversible and that it is not cumulative
